One data set deals with Myzus persicae. Put plainly: Myzus persicae (Green peach aphid) sunflower leaf disc spray test. It is filed as in vivo. The following applies: application rate 200 ppm, sprayed sunflower leaf discs, aphid population of mixed ages, mortality 6 DAT. The protocol: Myzus persicae (Green peach aphid):
Sunflower leaf discs were placed on agar in a 24-well microtiter plate and sprayed with test solutions at an application rate of 200 ppm. After drying, the leaf discs were infested with an aphid population of mixed ages. After an incubation period of 6 DAT, samples were checked for mortality. The following compound gave at least 80% control of Myzus persicae: A3.

`COc1c(NC(=O)c2ccccc2)cccc1C(=O)Nc1c(Cl)cc(C(F)(c2ccc(Cl)cc2)C(F)(F)F)cc1Cl` (centres unmarked) [A3]: the “control of Myzus persicae” value in the data set with Myzus persicae is reported as “at least 80%”.
The term melting point denotes the temperature, or range, at which the solid turns liquid. Consider `O=C(Nc1c(Cl)cc(C(F)(c2ccsc2)C(F)(F)F)cc1Cl)c1cccc(NC(=O)c2c(F)cc(F)cc2F)c1F` (centres unmarked) [A5, N-{3-[2,6-Dichloro-4-(2,2,2-trifluoro-1-fluoro-1-thiophen-3-ylethyl)-phenylcarbamoyl]-2-fluorophenyl}-2,4,6-trifluorobenzamide], for which the melting point was 197 to 199 °C.

(Values after patent publication US20120309812A1 (SYNGENTA CROP PROTECTION LLC, priority 2010, published 2012).)
